The record followed here is patent publication US7122214B2, “Drynaria extractions for treating osteoporosis and their extraction process” (priority 2000, dated 2006).

The experiment is described as follows: Inventors' investigation of activity of improving osteoporosis (no method given). The following applies: no data or method given.

Each structure is given as a SMILES string.

With `C[C@@H]1O[C@@H](O[C@H]2[C@H](Oc3cc(O)c4c(c3)O[C@H](c3ccc(O)cc3)CC4=O)O[C@H](CO)[C@@H](O)[C@@H]2O)[C@H](O)[C@H](O)[C@H]1O` [naringin], the “activity of improving osteoporosis” value is on record as “has the activity of improving osteoporosis” and the “efficiency in improving osteoporosis relative to the active extracts” value is “lower than the active extracts”.
